Legend:
Assay in all cases: Bactericidal test: CFU count after incubation in PBS buffer
[1] = tested on: Bacillus subtilis (Gram+); type: cell-based; conditions: 4-hour contact at 37° C., control 500,000, Example 8
[2] = tested on: Enterobacter aerogenes; type: cell-based; conditions: 4-hour contact at 37° C., control 1,000,000, Example 8
[3] = tested on: P. aeruginosa; type: cell-based, Pseudomonas aeruginosa; conditions: for P. aeruginosa count (UFC/mL ± 10) As a function of treatment time: 37° C., control 2,000,000, Example 6; for Colony count (UFC/mL ± 10) Pseudomonas: Example 9; for Colony count (UFC/mL ± 10) P. aeruginosa: 4-hour at 37° C., control 3,000,000, Example 15

CC(C)Cc1ccc(C(C)C(=O)O)cc1.[Na] (stereo not drawn) [IBU-Na, SODIUM IBUPROFEN]
Colony count (UFC/mL ± 10) ([1]; IBU-Na 50 mM): 250 UFC/mL
Colony count (UFC/mL ± 10) ([1]; IBU-Na 100 mM): 10 UFC/mL
Colony count (UFC/mL ± 10) ([2]; IBU-Na 50 mM): 450 UFC/mL
Colony count (UFC/mL ± 10) ([2]; IBU-Na 100 mM): 10 UFC/mL
P. aeruginosa (UFC/mL ± 10) ([3]; IBU 10 mM, 4 h at 37° C., control 1,700,000, Example 4): 760,000 UFC/mL
P. aeruginosa (UFC/mL ± 10) ([3]; IBU 20 mM y NaCl (1M), preincubated 1 hour with human Albumin 5 mg/mL, 4 hours at 37° C., control 1,000,000, Example 16): 1500 UFC/mL
P. aeruginosa (UFC/mL ± 10) ([3]; IBU 20 mM, 4 h at 37° C., control 1,700,000, Example 4): 300,000 UFC/mL
P. aeruginosa (UFC/mL ± 10) ([3]; IBU 50 mM, 4 h at 37° C., control 1,700,000, Example 4): 50 UFC/mL
P. aeruginosa count (UFC/mL ± 10) As a function of treatment time ([3]; IBU-Na 1 mM, 1 hour): 2,000,000 UFC/mL
P. aeruginosa count (UFC/mL ± 10) As a function of treatment time ([3]; IBU-Na 1 mM, 4 hours): 2,000,000 UFC/mL
P. aeruginosa count (UFC/mL ± 10) As a function of treatment time ([3]; IBU-Na 1 mM, Overnight (O.N.)): 2,000,000 UFC/mL
P. aeruginosa (UFC/mL ± 10) ([3]; IBU-Na 1 mM, Population A (control 200,000), 4 h at 37° C., Example 5): 200,000 UFC/mL
P. aeruginosa (UFC/mL ± 10) ([3]; IBU-Na 1 mM, Population B (control 20,000), 4 h at 37° C., Example 5): 20,000 UFC/mL
P. aeruginosa (UFC/mL ± 10) ([3]; IBU-Na 1 mM, Population C (control 2,000), 4 h at 37° C., Example 5): 2,000 UFC/mL
P. aeruginosa count (UFC/mL ± 10) As a function of treatment time ([3]; IBU-Na 2.5 mM, 1 hour): 2,000,000 UFC/mL
P. aeruginosa count (UFC/mL ± 10) As a function of treatment time ([3]; IBU-Na 2.5 mM, Overnight (O.N.)): 2,000,000 UFC/mL
P. aeruginosa (UFC/mL ± 10) ([3]; IBU-Na 5 mM + ClNa (1M), 1 hour, 37° C. pH 6.5, control 800,000, Example 13): 16,000 UFC/mL
P. aeruginosa (UFC/mL ± 10) ([3]; IBU-Na 5 mM + ClNa (1M), 2 hours, 37° C. pH 6.5, control 800,000, Example 13): 13,000 UFC/mL
P. aeruginosa (UFC/mL ± 10) ([3]; IBU-Na 5 mM + ClNa (1M), 4 hours, 37° C. pH 6.5, control 800,000, Example 13): 8,500 UFC/mL
Colony count (UFC/mL ± 10) Pseudomonas ([3]; IBU-Na 5 mM, 4 hours at 37° C., control 1,700,000): 1,700,000 UFC/mL
P. aeruginosa (UFC/mL ± 10) ([3]; IBU-Na 5 mM, Population A (control 200,000), 4 h at 37° C., Example 5): 150,000 UFC/mL
P. aeruginosa (UFC/mL ± 10) ([3]; IBU-Na 5 mM, Population B (control 20,000), 4 h at 37° C., Example 5): 17,000 UFC/mL
P. aeruginosa (UFC/mL ± 10) ([3]; IBU-Na 10 mM + ClNa (1M), 1 hour, 37° C. pH 6.5, control 800,000, Example 13): 30 UFC/mL
P. aeruginosa (UFC/mL ± 10) ([3]; IBU-Na 10 mM + ClNa (1M), 2 hours, 37° C. pH 6.5, control 800,000, Example 13): 30 UFC/mL
Colony count (UFC/mL ± 10) Pseudomonas ([3]; IBU-Na 10 mM, 4 hours at 37° C., control 1,700,000): 760,000 UFC/mL
P. aeruginosa count (UFC/mL ± 10) As a function of treatment time ([3]; IBU-Na 10 mM, Overnight (O.N.)): 900,000 UFC/mL
P. aeruginosa (UFC/mL ± 10) ([3]; IBU-Na 10 mM, Population B (control 20,000), 4 h at 37° C., Example 5): 3,500 UFC/mL
P. aeruginosa (UFC/mL ± 10) ([3]; IBU-Na 10 mM, Population C (control 2,000), 4 h at 37° C., Example 5): 800 UFC/mL
P. aeruginosa (UFC/mL ± 10) ([3]; IBU-Na 10 mM, Without ionic strength, 4 hours at 37° C., control 1,700,000, Example 12): 760,000 UFC/mL
Colony count (UFC/mL ± 10) P. aeruginosa ([3]; IBU-Na 12.5 mM + ClNa (1M)): 250 UFC/mL
P. aeruginosa (UFC/mL ± 10) ([3]; IBU-Na 20 mM, Population A (control 200,000), 4 h at 37° C., Example 5): 20,000 UFC/mL
P. aeruginosa (UFC/mL ± 10) ([3]; IBU-Na 20 mM, Population B (control 20,000), 4 h at 37° C., Example 5): 400 UFC/mL
P. aeruginosa (UFC/mL ± 10) ([3]; IBU-Na 20 mM, Population C (control 2,000), 4 h at 37° C., Example 5): 50 UFC/mL
Colony count (UFC/mL ± 10) P. aeruginosa ([3]; IBU-Na 25 mM + ClNa (1M)): 10 UFC/mL
P. aeruginosa count (UFC/mL ± 10) As a function of treatment time ([3]; IBU-Na 25 mM, 1 hour): 500,000 UFC/mL
Colony count (UFC/mL ± 10) Pseudomonas ([3]; IBU-Na 25 mM, 4 hours at 37° C., control 1,700,000): 200,000 UFC/mL
P. aeruginosa count (UFC/mL ± 10) As a function of treatment time ([3]; IBU-Na 25 mM, 4 hours): 250,000 UFC/mL
P. aeruginosa (UFC/mL ± 10) ([3]; IBU-Na 25 mM, Without ionic strength, 4 hours at 37° C., control 1,700,000, Example 12): 200,000 UFC/mL
P. aeruginosa (UFC/mL ± 10) ([3]; IBU-Na 30 mM, Population A (control 200,000), 4 h at 37° C., Example 5): 500 UFC/mL

— patent US11925612B2, “Bactericidal and virucidal pharmaceutical composition” (Quimica Luar SRL, priority 2015, dated 2024)
